From US20130261077A1 (priority 2012, published 2013)

Molecular target: T1, FimH-CRD (Escherichia coli, UniProt P08191)
T1 construct: The first 177 amino acids of the FimH protein; thrombin tag (printed as 'fusion protein with thrombin') (cleaved yes); made in house; host or cells: bacteria (pET21b plasmid)
Test: Competitive binding assay by fluorescence polarization, assay 1 (compounds prepared by manual serial dilution)
Protocol: The first 177 amino acids of the FimH protein were expressed as a fusion protein with thrombin in a pET21b plasmid in bacteria. This FimH protein sequence contains the carbohydrate recognition domain (CRD) and shall be termed FimH-CRD. Following bacterial expression of the protein, the FimH-CRD protein was purified to homogeneity and the thrombin tag removed by protease cleavage. A competitive binding assay by fluorescence polarization was performed using 5 nM of the Alexa 647 mannoside probe and 60 nM of the FimH-CRD. The samples are assayed in a low volume 384 well microtiter plate in a final volume of 20 μl. The final assay buffer conditions are the following, 50 mM Tris-Cl, ph 7.0, 100 mM NaCl, 1 mM EDTA, 5 mM β-mercaptoethanol, 0.05% BSA and 2.5% DMSO. Two assays are performed for FimH, termed assay 1 or assay 2. The assay conditions are the same for both assays except the following: assay 1 has compounds prepared by manual dilution in a serial dilution factor with 12-point dose response while assay 2 has compounds prepared by a robotics system also through a serial dilution factor (12 point dose response) and initially prepared in duplicate in 384 well-Corning polypropylene round bottom plates. The assay 2 plates have compound which is then frozen and must be thawed prior to use. Initially the Alexa 647 probe and the FimH-CRD are added to the assay buffer and then 0.5 μl of test compound (assay 1 or 2) between 0.4 nM to 75 μM final concentration are added (12 point titration with 3-fold serial dilution). Control wells for the Alexa 647 probe are prepared with the same conditions except for the addition of the FimH-CRD protein. Plates are then incubated for 5 hrs at room temperature in the dark and under humid conditions to prevent drying. Plates are read using the SpectraMax Paradigm multi-mode plate reader and the appropriate fluorescent polarization detection cartridge (Alexa-647).
Alexa 647 mannoside probe is prepared using the similar procedure reported for FAM mannoside (Han, Z. et. al., 2010, J. Med. Chem., 53, 4779) and is described in the scheme below.
To a blue colored stirred solution of (2S,3S,4S,5S,6R)-2-(4-aminobutoxy)-6-(hydroxymethyl)tetrahydropyran-3,4,5-triol (2.21 mg, 0.009 mmol) and the (2E)-2-[(2E,4E)-5-[3,3-dimethyl-5-sulfonato-1-(3-sulfonatopropyl)indol-1-ium-2-yl]penta-2,4-dienylidene]-3-[6-(2,5-dioxopyrrolidin-1-yl)oxy-6-oxo-hexyl]-3-methyl-1-(3-sulfonatopropyl)indoline-5-sulfonate (Potassium Ion (3)) (4.9 mg, 0.0044 mmol) in DMF (44 μL) is added Et3N (5.4 mg, 7.0 μL, 0.053 mmol) at RT. The solution is stirred at room temperature over night, concentrated, dissolved in water and purified on 12 g C-18 silica gel cartridge on Isolera system using acetonitrile in water (0 to 40%, 10 CV) and followed by lyophilization to afford Alexa 647 mannoside probe (3.3 mg, 34%) as deep blue solid.
The Kd values of the compounds are determined from dose response curves using twelve concentrations per compound in duplicate. Curves are fitted to data points using Fluorescence Polarization competitive displacement analysis, and Kds are interpolated from the resulting curves using GraphPad Prism software, version […] (GraphPad software Inc., San Diego, Calif., USA).

T1 sequence (P08191 22-177): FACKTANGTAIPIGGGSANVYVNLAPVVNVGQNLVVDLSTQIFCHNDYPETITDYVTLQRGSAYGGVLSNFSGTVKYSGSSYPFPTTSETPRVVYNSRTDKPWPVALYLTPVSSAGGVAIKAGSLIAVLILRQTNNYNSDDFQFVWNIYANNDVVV

Row | SMILES | IC50 [nM] | Kd [nM]
1 | OC[C@H]1O[C@H](c2cccc(O)c2)[C@@H](O)[C@@H](O)[C@@H]1O [Compound 1, (2R,3S,4R,5S,6R)-2-(hydroxymethyl)-6-(3-hydroxyphenyl)tetrahydropyran-3,4,5-triol] | 53 | 12.3 ± 5.1
2 | CNC(=O)c1ccc(-c2cccc([C@H]3O[C@H](CO)[C@@H](O)[C@H](O)[C@@H]3O)c2)cc1 [Compound 2, N-methyl-4-[3-[(2R,3S,4R,5S,6R)-3,4,5-trihydroxy-6-(hydroxymethyl)tetrahydropyran-2-yl]phenyl]benzamide] | 29 | < 5
3 | CNC(=O)c1ccc(Oc2cccc([C@H]3O[C@H](CO)[C@@H](O)[C@H](O)[C@@H]3O)c2)cc1 [Compound 3, N-methyl-4-[3-[(2R,3S,4R,5S,6R)-3,4,5-trihydroxy-6-(hydroxymethyl)tetrahydropyran-2-yl]phenoxy]benzamide] | 39 | 7.2 ± 1.1
4 | CNC(=O)c1cccc(Oc2cccc([C@H]3O[C@H](CO)[C@@H](O)[C@H](O)[C@@H]3O)c2)c1 [Compound 5, N-methyl-3-[3-[(2R,3S,4R,5S,6R)-3,4,5-trihydroxy-6-(hydroxymethyl)tetrahydropyran-2-yl]phenoxy]benzamide] | 18 | < 5
5 | Cc1ccc(-c2cccc([C@H]3O[C@H](CO)[C@@H](O)[C@H](O)[C@@H]3O)c2)cc1 [Compound 6, (2R,3S,4R,5S,6R)-2-(hydroxymethyl)-6-(4′-methyl-[1,1′-biphenyl]-3-yl)tetrahydro-2H-pyran-3,4,5-triol] | 87 | 13.7 ± 7.7
6 | CC(=O)Nc1cccc(-c2cccc([C@H]3O[C@H](CO)[C@@H](O)[C@H](O)[C@@H]3O)c2)c1 [Compound 7, N-[3-[3-[(2R,3S,4R,5S,6R)-3,4,5-trihydroxy-6-(hydroxymethyl)tetrahydropyran-2-yl]phenyl]phenyl]acetamide] | 70 | 14.3 ± 9.1
7 | OC[C@H]1O[C@H](c2cccc(-c3ccsc3)c2)[C@@H](O)[C@@H](O)[C@@H]1O [Compound 8, (2R,3S,4R,5S,6R)-2-(hydroxymethyl)-6-[3-(3-thienyl)phenyl]tetrahydropyran-3,4,5-triol] | 155 | 40.1 ± 17.1
8 | OC[C@H]1O[C@H](c2cccc(-c3cccnc3)c2)[C@@H](O)[C@@H](O)[C@@H]1O [Compound 9, (2R,3S,4R,5S,6R)-2-(hydroxymethyl)-6-[3-(3-pyridyl)phenyl]tetrahydropyran-3,4,5-triol] | 163 | 28.5 ± 23.7
9 | OC[C@H]1O[C@H](c2cccc(-c3ccc4c(c3)OCO4)c2)[C@@H](O)[C@@H](O)[C@@H]1O [Compound 11, (2R,3S,4R,5S,6R)-2-[3-(1,3-benzodioxol-5-yl)phenyl]-6-(hydroxymethyl)tetrahydropyran-3,4,5-triol] | 88 | 11.9 ± 7.3
10 | OCc1ccccc1-c1cccc([C@H]2O[C@H](CO)[C@@H](O)[C@H](O)[C@@H]2O)c1 [Compound 13, (2R,3S,4R,5S,6R)-2-(hydroxymethyl)-6-(2′-(hydroxymethyl)-[1,1′-biphenyl]-3-yl)tetrahydro-2H-pyran-3,4,5-triol] | 195 | 39.9 ± 23.6
11 | CN(C)Cc1ccccc1-c1cccc([C@H]2O[C@H](CO)[C@@H](O)[C@H](O)[C@@H]2O)c1 [Compound 14, (2R,3S,4R,5S,6R)-2-(2′-((dimethylamino)methyl)-[1,1′-biphenyl]-3-yl)-6-(hydroxymethyl)tetrahydro-2H-pyran-3,4,5-triol] | 551 | 77.8 ± 70.4
12 | OC[C@H]1O[C@H](c2cccc(-c3ccc4[nH]ccc4c3)c2)[C@@H](O)[C@@H](O)[C@@H]1O [Compound 15] | 306 | 48.2 ± 47.7
13 | Nc1cccc(-c2cccc([C@H]3O[C@H](CO)[C@@H](O)[C@H](O)[C@@H]3O)c2)c1 [Compound 16, (2R,3S,4R,5S,6R)-2-[3-(3-aminophenyl)phenyl]-6-(hydroxymethyl)tetrahydropyran-3,4,5-triol] | 247 | 37 ± 33.7
14 | OC[C@H]1O[C@H](c2cccc(-c3ccc4cc(O)ccc4c3)c2)[C@@H](O)[C@@H](O)[C@@H]1O [Compound 17, (2R,3S,4R,5S,6R)-2-(hydroxymethyl)-6-[3-(6-hydroxy-2-naphthyl)phenyl]tetrahydropyran-3,4,5-triol] | 48 | 8.6 ± 2.5
15 | Cn1nc(C(F)(F)F)cc1-c1cccc([C@H]2O[C@H](CO)[C@@H](O)[C@H](O)[C@@H]2O)c1 [Compound 18, (2R,3S,4R,5S,6R)-2-(hydroxymethyl)-6-(3-(1-methyl-3-(trifluoromethyl)-1H-pyrazol-5-yl)phenyl)tetrahydro-2H-pyran-3,4,5-triol] | 160 | 33.7 ± 15.8
16 | CCCOc1ccc(F)c(-c2cccc([C@H]3O[C@H](CO)[C@@H](O)[C@H](O)[C@@H]3O)c2)c1 [Compound 19] | 52 | 6.2 ± 1.2
17 | OC[C@H]1O[C@H](c2cccc(-c3ccc4c(c3)OCCO4)c2)[C@@H](O)[C@@H](O)[C@@H]1O [Compound 20, (2R,3S,4R,5S,6R)-2-(3-(2,3-dihydrobenzo[b][1,4]dioxin-6-yl)phenyl)-6-(hydroxymethyl)tetrahydro-2H-pyran-3,4,5-triol] | 55 | 7.1 ± 2.4
18 | CS(=O)(=O)c1ccc(-c2cccc([C@H]3O[C@H](CO)[C@@H](O)[C@H](O)[C@@H]3O)c2)cc1 [Compound 21] | 92 | 12.3 ± 5.1
19 | O=C(Nc1ccccc1)c1cccc([C@H]2O[C@H](CO)[C@@H](O)[C@H](O)[C@@H]2O)c1 [Compound 23, N-phenyl-3-[(2R,3S,4R,5S,6R)-3,4,5-trihydroxy-6-(hydroxymethyl)tetrahydropyran-2-yl]benzamide] | 16 | 38.4 ± 23.6
20 | Cc1cc(NC(=O)c2cccc([C@H]3O[C@H](CO)[C@@H](O)[C@H](O)[C@@H]3O)c2)n(Cc2ccccc2)n1 [Compound 24, N-(1-benzyl-3-methyl-1H-pyrazol-5-yl)-3-((2R,3S,4R,5S,6R)-3,4,5-trihydroxy-6-(hydroxymethyl)tetrahydro-2H-pyran-2-yl)benzamide] | 243 | 56.7 ± 0.2
21 | Cc1nnc(NC(=O)c2cccc([C@H]3O[C@H](CO)[C@@H](O)[C@H](O)[C@@H]3O)c2)s1 [Compound 25, N-(5-methyl-1,3,4-thiadiazol-2-yl)-3-((2R,3S,4R,5S,6R)-3,4,5-trihydroxy-6-(hydroxymethyl)tetrahydro-2H-pyran-2-yl)benzamide] | 36 | 7 ± 0.5
22 | O=C(Nc1ccc2ncccc2c1)c1cccc([C@H]2O[C@H](CO)[C@@H](O)[C@H](O)[C@@H]2O)c1 [Compound 26, N-(quinolin-6-yl)-3-((2R,3S,4R,5S,6R)-3,4,5-trihydroxy-6-(hydroxymethyl)tetrahydro-2H-pyran-2-yl)benzamide] | 100 | 16.8 ± 7.8
23 | O=C(Nc1ccc2[nH]ccc2c1)c1cccc([C@H]2O[C@H](CO)[C@@H](O)[C@H](O)[C@@H]2O)c1 [Compound 27, N-(1H-indol-5-yl)-3-((2R,3S,4R,5S,6R)-3,4,5-trihydroxy-6-(hydroxymethyl)tetrahydro-2H-pyran-2-yl)benzamide] | 138 | 37 ± 3.1
24 | Cc1cnc(NC(=O)c2cccc([C@H]3O[C@H](CO)[C@@H](O)[C@H](O)[C@@H]3O)c2)s1 [Compound 28, N-(5-methylthiazol-2-yl)-3-((2R,3S,4R,5S,6R)-3,4,5-trihydroxy-6-(hydroxymethyl)tetrahydro-2H-pyran-2-yl)benzamide] | 56 | 16.7 ± 7.5
25 | O=C(Nc1cccnc1)c1cccc([C@H]2O[C@H](CO)[C@@H](O)[C@H](O)[C@@H]2O)c1 [Compound 29, N-(pyridin-3-yl)-3-((2R,3S,4R,5S,6R)-3,4,5-trihydroxy-6-(hydroxymethyl)tetrahydro-2H-pyran-2-yl)benzamide] | 59 | 18.1 ± 5.9
